From publication PMC12670405, “Second-Generation AURKA-Targeting PROTACs: Structural Optimization toward in Vivo Degradation in Neuroblastoma” (Journal of Medicinal Chemistry, 2025)

What was measured:
Assay in all cases: KINOMEscan scanMAX
Assay type in all cases: binding
PIP5K1A = biological target: T1, PIP5K1A (Homo sapiens, UniProt Q99755); conditions: read-out: Percent Control
T1 construct: purchased Eurofins Discovery (DiscoverX KINOMEscan scanMAX)
Method: (§1) The kinome-wide binding assay was performed by Eurofins Discovery using the scanMAX screening platform. More information can be found on the Eurofins Discovery Web site.

RIPK1 = biological target: T2, RIPK1 (Homo sapiens, UniProt Q13546); conditions: read-out: Percent Control
T2 construct: purchased Eurofins Discovery (DiscoverX KINOMEscan scanMAX)
Method: as §1

CSK = biological target: T3, CSK (Homo sapiens, UniProt P41240); conditions: read-out: Percent Control
T3 construct: purchased Eurofins Discovery (DiscoverX KINOMEscan scanMAX)
T3 sequence (P41240 whole entry): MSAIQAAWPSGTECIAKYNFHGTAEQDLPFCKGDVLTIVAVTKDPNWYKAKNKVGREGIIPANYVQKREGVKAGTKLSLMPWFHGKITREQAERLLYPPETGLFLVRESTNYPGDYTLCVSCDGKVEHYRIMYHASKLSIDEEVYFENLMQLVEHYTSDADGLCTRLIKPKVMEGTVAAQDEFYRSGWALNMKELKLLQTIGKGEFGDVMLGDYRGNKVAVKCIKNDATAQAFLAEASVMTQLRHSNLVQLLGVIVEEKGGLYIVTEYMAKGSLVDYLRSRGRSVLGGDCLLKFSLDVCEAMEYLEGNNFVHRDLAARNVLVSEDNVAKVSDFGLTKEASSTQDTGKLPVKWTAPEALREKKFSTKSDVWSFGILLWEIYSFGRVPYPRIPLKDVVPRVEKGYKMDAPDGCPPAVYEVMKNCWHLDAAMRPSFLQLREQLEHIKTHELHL
Method: as §1

FLT4 = biological target: T4, FLT4 (Homo sapiens, UniProt P35916); conditions: read-out: Percent Control
T4 construct: purchased Eurofins Discovery (DiscoverX KINOMEscan scanMAX)
Method: as §1

AKT1 = biological target: T5, AKT1 (Homo sapiens, UniProt P31749); conditions: read-out: Percent Control
T5 construct: purchased Eurofins Discovery (DiscoverX KINOMEscan scanMAX)
Method: as §1

ERK3 = biological target: T6, ERK3 (Homo sapiens, UniProt Q16659); conditions: read-out: Percent Control
T6 construct: purchased Eurofins Discovery (DiscoverX KINOMEscan scanMAX)
Method: as §1

FLT3(ITD) = test system: FLT3(ITD)
Method: as §1

AKT3 = biological target: T7, AKT3 (Homo sapiens, UniProt Q9Y243); conditions: read-out: Percent Control
T7 construct: purchased Eurofins Discovery (DiscoverX KINOMEscan scanMAX)
Method: as §1

FER = biological target: T8, FER (Homo sapiens, UniProt P16591); conditions: read-out: Percent Control
T8 construct: purchased Eurofins Discovery (DiscoverX KINOMEscan scanMAX)
Method: as §1

GRK1 = biological target: T9, GRK1 (Homo sapiens, UniProt Q15835); conditions: read-out: Percent Control
T9 construct: purchased Eurofins Discovery (DiscoverX KINOMEscan scanMAX)
Method: as §1

PLK2 = biological target: T10, PLK2 (Homo sapiens, UniProt Q9NYY3); conditions: read-out: Percent Control
T10 construct: purchased Eurofins Discovery (DiscoverX KINOMEscan scanMAX)
T10 sequence (Q9NYY3 whole entry): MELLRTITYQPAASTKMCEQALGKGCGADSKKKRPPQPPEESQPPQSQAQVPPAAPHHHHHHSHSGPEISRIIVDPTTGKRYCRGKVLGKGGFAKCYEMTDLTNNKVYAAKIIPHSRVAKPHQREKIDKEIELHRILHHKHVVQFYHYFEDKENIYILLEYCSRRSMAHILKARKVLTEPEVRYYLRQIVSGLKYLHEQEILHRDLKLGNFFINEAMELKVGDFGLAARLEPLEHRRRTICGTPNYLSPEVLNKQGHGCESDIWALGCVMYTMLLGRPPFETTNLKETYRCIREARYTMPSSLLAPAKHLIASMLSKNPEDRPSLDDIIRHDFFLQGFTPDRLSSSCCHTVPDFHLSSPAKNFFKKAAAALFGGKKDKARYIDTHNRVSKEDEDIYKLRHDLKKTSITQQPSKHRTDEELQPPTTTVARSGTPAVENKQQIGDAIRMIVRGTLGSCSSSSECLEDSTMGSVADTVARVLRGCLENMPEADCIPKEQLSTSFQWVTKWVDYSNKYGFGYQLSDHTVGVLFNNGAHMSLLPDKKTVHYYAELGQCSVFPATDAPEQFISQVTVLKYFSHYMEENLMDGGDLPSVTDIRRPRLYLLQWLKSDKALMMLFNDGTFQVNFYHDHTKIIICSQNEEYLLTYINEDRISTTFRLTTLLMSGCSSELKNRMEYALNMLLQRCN
Method: as §1

HIPK2 = biological target: T11, HIPK2 (Homo sapiens, UniProt Q9H2X6); conditions: read-out: Percent Control
T11 construct: purchased Eurofins Discovery (DiscoverX KINOMEscan scanMAX)
Method: as §1

ERK8 = biological target: T12, ERK8 (Homo sapiens, UniProt Q8TD08); conditions: read-out: Percent Control
T12 construct: purchased Eurofins Discovery (DiscoverX KINOMEscan scanMAX)
Method: as §1

PRKD3 = biological target: T13, PRKD3 (Homo sapiens, UniProt O94806); conditions: read-out: Percent Control
T13 construct: purchased Eurofins Discovery (DiscoverX KINOMEscan scanMAX)
Method: as §1

AXL = biological target: T14, AXL (Homo sapiens, UniProt P30530); conditions: read-out: Percent Control
T14 construct: purchased Eurofins Discovery (DiscoverX KINOMEscan scanMAX)
Method: as §1

FGR = biological target: T15, FGR (Homo sapiens, UniProt P09769); conditions: read-out: Percent Control
T15 construct: purchased Eurofins Discovery (DiscoverX KINOMEscan scanMAX)
Method: as §1

ABL1-phosphorylated = biological target: T16, ABL1-phosphorylated (Homo sapiens, UniProt P00519); conditions: read-out: Percent Control
T16 construct: purchased Eurofins Discovery (DiscoverX KINOMEscan scanMAX)
Method: as §1

DDR2 = biological target: T17, DDR2 (Homo sapiens, UniProt Q16832); conditions: read-out: Percent Control
T17 construct: purchased Eurofins Discovery (DiscoverX KINOMEscan scanMAX)
Method: as §1

MKK7 = biological target: T18, MKK7 (Homo sapiens, UniProt O14733); conditions: read-out: Percent Control
T18 construct: purchased Eurofins Discovery (DiscoverX KINOMEscan scanMAX)
T18 sequence (O14733 whole entry): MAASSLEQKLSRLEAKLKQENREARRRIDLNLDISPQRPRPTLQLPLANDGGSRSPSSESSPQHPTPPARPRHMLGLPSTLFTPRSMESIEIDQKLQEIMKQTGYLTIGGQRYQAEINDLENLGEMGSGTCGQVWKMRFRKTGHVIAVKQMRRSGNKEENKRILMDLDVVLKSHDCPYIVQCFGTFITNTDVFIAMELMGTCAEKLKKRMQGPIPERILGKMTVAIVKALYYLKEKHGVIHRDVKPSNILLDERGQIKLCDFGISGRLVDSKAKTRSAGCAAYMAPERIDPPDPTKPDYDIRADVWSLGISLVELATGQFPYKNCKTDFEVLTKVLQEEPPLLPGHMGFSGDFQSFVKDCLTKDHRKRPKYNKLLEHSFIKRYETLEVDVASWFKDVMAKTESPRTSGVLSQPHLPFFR
Method: as §1

AKT2 = biological target: T19, AKT2 (Homo sapiens, UniProt P31751); conditions: read-out: Percent Control
T19 construct: purchased Eurofins Discovery (DiscoverX KINOMEscan scanMAX)
Method: as §1

SRPK1 = biological target: T20, SRPK1 (Homo sapiens, UniProt Q96SB4); conditions: read-out: Percent Control
T20 construct: purchased Eurofins Discovery (DiscoverX KINOMEscan scanMAX)
T20 sequence (Q96SB4 whole entry): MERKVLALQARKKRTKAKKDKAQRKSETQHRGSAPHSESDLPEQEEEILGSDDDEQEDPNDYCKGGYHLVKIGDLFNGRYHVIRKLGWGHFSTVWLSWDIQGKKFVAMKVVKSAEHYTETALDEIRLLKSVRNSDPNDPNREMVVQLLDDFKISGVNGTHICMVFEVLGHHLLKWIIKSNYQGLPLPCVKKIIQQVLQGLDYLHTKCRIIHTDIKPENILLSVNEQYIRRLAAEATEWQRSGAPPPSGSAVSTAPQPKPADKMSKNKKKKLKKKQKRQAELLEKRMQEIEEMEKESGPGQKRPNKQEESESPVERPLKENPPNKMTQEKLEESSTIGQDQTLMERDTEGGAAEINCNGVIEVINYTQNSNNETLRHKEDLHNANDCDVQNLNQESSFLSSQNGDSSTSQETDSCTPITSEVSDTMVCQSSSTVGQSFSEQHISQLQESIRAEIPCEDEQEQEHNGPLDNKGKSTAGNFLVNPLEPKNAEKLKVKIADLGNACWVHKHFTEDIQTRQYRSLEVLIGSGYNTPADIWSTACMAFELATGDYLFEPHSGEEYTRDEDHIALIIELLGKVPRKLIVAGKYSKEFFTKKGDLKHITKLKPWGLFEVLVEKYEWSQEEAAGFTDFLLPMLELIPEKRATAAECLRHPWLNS
Method: as §1

LZK = biological target: T21, LZK (Homo sapiens, UniProt O43283); conditions: read-out: Percent Control
T21 construct: purchased Eurofins Discovery (DiscoverX KINOMEscan scanMAX)
Method: as §1

NEK10 = biological target: T22, NEK10 (Homo sapiens, UniProt Q6ZWH5); conditions: read-out: Percent Control
T22 construct: purchased Eurofins Discovery (DiscoverX KINOMEscan scanMAX)
Method: as §1

TRKC = biological target: T23, TRKC (Homo sapiens, UniProt Q16288); conditions: read-out: Percent Control
T23 construct: purchased Eurofins Discovery (DiscoverX KINOMEscan scanMAX)
Method: as §1

YSK1 = biological target: T24, YSK1 (Homo sapiens, UniProt O00506); conditions: read-out: Percent Control
T24 construct: purchased Eurofins Discovery (DiscoverX KINOMEscan scanMAX)
T24 sequence (O00506 whole entry): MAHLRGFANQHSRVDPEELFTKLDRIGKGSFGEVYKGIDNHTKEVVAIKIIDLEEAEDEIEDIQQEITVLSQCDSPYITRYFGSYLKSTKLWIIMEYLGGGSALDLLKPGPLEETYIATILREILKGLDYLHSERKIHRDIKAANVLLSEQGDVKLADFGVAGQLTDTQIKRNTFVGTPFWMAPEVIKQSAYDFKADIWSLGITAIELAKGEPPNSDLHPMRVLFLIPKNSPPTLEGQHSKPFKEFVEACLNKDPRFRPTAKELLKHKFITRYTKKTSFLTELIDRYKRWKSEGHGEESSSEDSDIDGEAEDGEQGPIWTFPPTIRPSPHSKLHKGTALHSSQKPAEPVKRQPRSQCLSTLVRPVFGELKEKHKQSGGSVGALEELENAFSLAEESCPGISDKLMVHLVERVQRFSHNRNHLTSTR
Method: as §1

IRAK3 = biological target: T25, IRAK3 (Homo sapiens, UniProt Q9Y616); conditions: read-out: Percent Control
T25 construct: purchased Eurofins Discovery (DiscoverX KINOMEscan scanMAX)
Method: as §1

RIOK1 = biological target: T26, RIOK1 (Homo sapiens, UniProt Q9BRS2); conditions: read-out: Percent Control
T26 construct: purchased Eurofins Discovery (DiscoverX KINOMEscan scanMAX)
T26 sequence (Q9BRS2 whole entry): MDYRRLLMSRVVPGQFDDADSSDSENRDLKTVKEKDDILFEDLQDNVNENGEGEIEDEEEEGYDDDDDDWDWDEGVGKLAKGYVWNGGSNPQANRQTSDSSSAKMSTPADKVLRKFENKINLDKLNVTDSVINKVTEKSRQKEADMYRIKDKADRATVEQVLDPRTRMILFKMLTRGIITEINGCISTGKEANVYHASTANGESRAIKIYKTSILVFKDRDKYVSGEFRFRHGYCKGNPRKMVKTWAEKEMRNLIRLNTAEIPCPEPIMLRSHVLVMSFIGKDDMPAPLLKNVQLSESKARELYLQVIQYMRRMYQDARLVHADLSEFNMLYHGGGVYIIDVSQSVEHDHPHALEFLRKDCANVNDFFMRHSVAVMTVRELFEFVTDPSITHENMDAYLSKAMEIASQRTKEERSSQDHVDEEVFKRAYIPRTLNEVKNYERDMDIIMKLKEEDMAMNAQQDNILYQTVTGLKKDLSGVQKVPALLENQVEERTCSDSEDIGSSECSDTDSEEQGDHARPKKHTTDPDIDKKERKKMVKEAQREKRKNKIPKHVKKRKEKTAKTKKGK
Method: as §1

ABL2 = biological target: T27, ABL2 (Homo sapiens, UniProt P42684); conditions: read-out: Percent Control
T27 construct: purchased Eurofins Discovery (DiscoverX KINOMEscan scanMAX)
T27 sequence (P42684 whole entry): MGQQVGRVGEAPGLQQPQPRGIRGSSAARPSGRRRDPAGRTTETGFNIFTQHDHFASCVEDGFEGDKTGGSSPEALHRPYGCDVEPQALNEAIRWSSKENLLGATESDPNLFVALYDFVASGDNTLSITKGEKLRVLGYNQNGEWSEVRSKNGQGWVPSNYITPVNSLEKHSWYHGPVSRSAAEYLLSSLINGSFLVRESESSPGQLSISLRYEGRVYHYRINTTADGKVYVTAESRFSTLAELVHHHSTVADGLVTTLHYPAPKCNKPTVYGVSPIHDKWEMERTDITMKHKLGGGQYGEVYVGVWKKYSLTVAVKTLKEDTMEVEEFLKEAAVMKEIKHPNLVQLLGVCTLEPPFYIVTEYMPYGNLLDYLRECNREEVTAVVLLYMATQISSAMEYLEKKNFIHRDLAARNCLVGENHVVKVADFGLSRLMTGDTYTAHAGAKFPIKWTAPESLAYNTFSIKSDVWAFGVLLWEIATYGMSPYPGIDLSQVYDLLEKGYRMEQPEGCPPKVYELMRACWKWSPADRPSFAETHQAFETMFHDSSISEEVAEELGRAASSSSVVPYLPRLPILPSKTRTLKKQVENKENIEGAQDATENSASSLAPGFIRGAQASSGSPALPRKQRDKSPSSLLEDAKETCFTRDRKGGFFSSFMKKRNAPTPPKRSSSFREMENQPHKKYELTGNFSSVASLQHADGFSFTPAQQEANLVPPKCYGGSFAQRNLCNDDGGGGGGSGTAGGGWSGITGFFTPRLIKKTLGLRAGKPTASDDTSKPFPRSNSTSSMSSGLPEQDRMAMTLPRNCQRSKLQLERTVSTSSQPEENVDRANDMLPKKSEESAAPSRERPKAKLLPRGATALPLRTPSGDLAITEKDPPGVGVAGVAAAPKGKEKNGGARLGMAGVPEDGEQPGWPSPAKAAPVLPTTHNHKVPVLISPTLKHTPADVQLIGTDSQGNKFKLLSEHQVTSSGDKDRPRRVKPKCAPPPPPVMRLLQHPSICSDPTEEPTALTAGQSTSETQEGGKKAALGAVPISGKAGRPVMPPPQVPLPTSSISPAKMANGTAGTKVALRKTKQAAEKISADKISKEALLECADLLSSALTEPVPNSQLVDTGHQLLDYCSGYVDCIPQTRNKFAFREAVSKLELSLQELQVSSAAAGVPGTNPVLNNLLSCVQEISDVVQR
Method: as §1

PIK3CA(I800L) = biological target: T28, PIK3CA(I800L) (Homo sapiens, UniProt P42336, I800L); conditions: read-out: Percent Control
T28 construct: purchased Eurofins Discovery (DiscoverX KINOMEscan scanMAX)
Method: as §1

CSNK1G1 = biological target: T29, CSNK1G1 (Homo sapiens, UniProt Q9HCP0); conditions: read-out: Percent Control
T29 construct: purchased Eurofins Discovery (DiscoverX KINOMEscan scanMAX)
Method: as §1

MLK3 = biological target: T30, MLK3 (Homo sapiens, UniProt Q16584); conditions: read-out: Percent Control
T30 construct: purchased Eurofins Discovery (DiscoverX KINOMEscan scanMAX)
Method: as §1

KIT(A829P) = biological target: T31, KIT(A829P) (Homo sapiens, UniProt P10721, A829P); conditions: read-out: Percent Control
T31 construct: purchased Eurofins Discovery (DiscoverX KINOMEscan scanMAX)
Method: as §1

PIK3CA(H1047Y) = biological target: T32, PIK3CA(H1047Y) (Homo sapiens, UniProt P42336, H1047Y); conditions: read-out: Percent Control
T32 construct: purchased Eurofins Discovery (DiscoverX KINOMEscan scanMAX)
Method: as §1

NEK3 = biological target: T33, NEK3 (Homo sapiens, UniProt P51956); conditions: read-out: Percent Control
T33 construct: purchased Eurofins Discovery (DiscoverX KINOMEscan scanMAX)
Method: as §1

AMPK-alpha2 = biological target: T34, AMPK-alpha2 (Homo sapiens, UniProt P54646); conditions: read-out: Percent Control
T34 construct: purchased Eurofins Discovery (DiscoverX KINOMEscan scanMAX)
T34 sequence (P54646 whole entry): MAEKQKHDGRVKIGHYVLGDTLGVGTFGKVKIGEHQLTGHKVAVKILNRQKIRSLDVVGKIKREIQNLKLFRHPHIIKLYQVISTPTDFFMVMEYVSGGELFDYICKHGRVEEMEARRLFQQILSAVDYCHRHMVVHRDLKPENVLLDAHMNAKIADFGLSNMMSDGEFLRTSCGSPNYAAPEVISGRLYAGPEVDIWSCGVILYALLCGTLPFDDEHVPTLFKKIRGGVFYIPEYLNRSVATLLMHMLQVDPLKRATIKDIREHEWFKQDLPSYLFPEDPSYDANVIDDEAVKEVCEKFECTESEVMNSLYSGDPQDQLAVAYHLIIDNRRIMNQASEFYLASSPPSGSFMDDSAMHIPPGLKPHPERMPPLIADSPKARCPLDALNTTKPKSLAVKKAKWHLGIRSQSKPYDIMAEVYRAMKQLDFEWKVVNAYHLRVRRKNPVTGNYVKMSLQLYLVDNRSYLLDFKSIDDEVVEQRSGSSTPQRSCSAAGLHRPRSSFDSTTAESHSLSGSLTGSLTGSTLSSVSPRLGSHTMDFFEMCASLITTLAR
Method: as §1

Structure (SMILES): Cc1cc(Nc2ccc(F)c(CC3(C(=O)N4CCC(F)(CN5CCN(c6ccc(N7CCC(=O)NC7=O)cn6)CC5)CC4)CCN(Cc4cccc(Cl)c4F)CC3)n2)n[nH]1 [SK5527]
- remaining binding at 0.1 µM (PIP5K1A; 100 nM): 70%
- remaining binding at 1 µM (PIP5K1A; 1000 nM): 76%
- remaining binding at 0.1 µM (RIPK1; 100 nM): 100%
- remaining binding at 1 µM (RIPK1; 1000 nM): 86%
- remaining binding at 0.1 µM (CSK; 100 nM): 100%
- remaining binding at 1 µM (CSK; 1000 nM): 100%
- remaining binding at 0.1 µM (FLT4; 100 nM): 76%
- remaining binding at 1 µM (FLT4; 1000 nM): 40%
- remaining binding at 0.1 µM (AKT1; 100 nM): 78%
- remaining binding at 1 µM (AKT1; 1000 nM): 100%
- remaining binding at 0.1 µM (ERK3; 100 nM): 100%
- remaining binding at 1 µM (ERK3; 1000 nM): 94%
- Percent Control (FLT3(ITD); 100 nM): 89%
- Percent Control (FLT3(ITD); 1000 nM): 94%
- remaining binding at 0.1 µM (AKT3; 100 nM): 86%
- remaining binding at 1 µM (AKT3; 1000 nM): 91%
- remaining binding at 0.1 µM (FER; 100 nM): 84%
- remaining binding at 1 µM (FER; 1000 nM): 100%
- remaining binding at 0.1 µM (GRK1; 100 nM): 100%
- remaining binding at 1 µM (GRK1; 1000 nM): 85%
- remaining binding at 0.1 µM (PLK2; 100 nM): 100%
- remaining binding at 1 µM (PLK2; 1000 nM): 87%
- remaining binding at 0.1 µM (HIPK2; 100 nM): 100%
- remaining binding at 1 µM (HIPK2; 1000 nM): 91%
- remaining binding at 0.1 µM (ERK8; 100 nM): 89%
- remaining binding at 1 µM (ERK8; 1000 nM): 92%
- remaining binding at 0.1 µM (PRKD3; 100 nM): 100%
- remaining binding at 1 µM (PRKD3; 1000 nM): 100%
- remaining binding at 0.1 µM (AXL; 100 nM): 36%
- remaining binding at 1 µM (AXL; 1000 nM): 3.3%
- remaining binding at 0.1 µM (FGR; 100 nM): 89%
- remaining binding at 1 µM (FGR; 1000 nM): 61%
- remaining binding at 0.1 µM (ABL1-phosphorylated; 100 nM): 67%
- remaining binding at 1 µM (ABL1-phosphorylated; 1000 nM): 48%
- remaining binding at 0.1 µM (DDR2; 100 nM): 98%
- remaining binding at 1 µM (DDR2; 1000 nM): 100%
- remaining binding at 0.1 µM (MKK7; 100 nM): 100%
- remaining binding at 1 µM (MKK7; 1000 nM): 54%
- remaining binding at 0.1 µM (AKT2; 100 nM): 98%
- remaining binding at 1 µM (AKT2; 1000 nM): 98%
- remaining binding at 0.1 µM (SRPK1; 100 nM): 93%
- remaining binding at 1 µM (SRPK1; 1000 nM): 100%
- remaining binding at 0.1 µM (LZK; 100 nM): 92%
- remaining binding at 1 µM (LZK; 1000 nM): 90%
- remaining binding at 0.1 µM (NEK10; 100 nM): 100%
- remaining binding at 1 µM (NEK10; 1000 nM): 100%
- remaining binding at 0.1 µM (TRKC; 100 nM): 97%
- remaining binding at 1 µM (TRKC; 1000 nM): 76%
- remaining binding at 0.1 µM (YSK1; 100 nM): 100%
- remaining binding at 1 µM (YSK1; 1000 nM): 98%
- remaining binding at 0.1 µM (IRAK3; 100 nM): 100%
- remaining binding at 1 µM (IRAK3; 1000 nM): 100%
- remaining binding at 0.1 µM (RIOK1; 100 nM): 100%
- remaining binding at 1 µM (RIOK1; 1000 nM): 100%
- remaining binding at 0.1 µM (ABL2; 100 nM): 100%
- remaining binding at 1 µM (ABL2; 1000 nM): 66%
- remaining binding at 0.1 µM (PIK3CA(I800L); 100 nM): 85%
- remaining binding at 1 µM (PIK3CA(I800L); 1000 nM): 74%
- remaining binding at 0.1 µM (CSNK1G1; 100 nM): 100%
- remaining binding at 1 µM (CSNK1G1; 1000 nM): 98%
- remaining binding at 0.1 µM (MLK3; 100 nM): 85%
- remaining binding at 1 µM (MLK3; 1000 nM): 100%
- remaining binding at 0.1 µM (KIT(A829P); 100 nM): 100%
- remaining binding at 1 µM (KIT(A829P); 1000 nM): 95%
- remaining binding at 0.1 µM (PIK3CA(H1047Y); 100 nM): 95%
- remaining binding at 1 µM (PIK3CA(H1047Y); 1000 nM): 100%
- remaining binding at 0.1 µM (NEK3; 100 nM): 88%
- remaining binding at 1 µM (NEK3; 1000 nM): 61%
- remaining binding at 0.1 µM (AMPK-alpha2; 100 nM): 93%
- remaining binding at 1 µM (AMPK-alpha2; 1000 nM): 100%
